From patent US4304784A, “Composition and method for inhibiting platelet aggregation” (Takeda Chemical Industries, Ltd., priority 1978, dated 1981)
Where two headings read alike, the source gives them in different places.

Assays:
[1] = test system: platelet aggregation by ADP; experiment: Platelet aggregation inhibitory activity after oral administration to rats (blood sampled one hour after dosing); type: in vivo; settings: rat
Procedure: (§1) With a siliconized injection syringe wetted with heparin, a blood sample was taken from the descending artery of a rat and centrifuged at 4° C. and 1,000 r.p.m. for 10 minutes to obtain a platelet-rich plasma (PRP). The test drug solutions were prepared as follows. The test drug was dissolved in 0.02 M Tris-HCl buffer containing 1% of dimethylformamide and isotonicated with sodium (pH 7.4). To 0.4 ml of the above PRP was added 3.0 ml of the test drug solution, followed by the addition of 0.1 ml of 10^-4 M ADP. The resultant aggregation of platelets was measured with an aggregation meter [Nippon Bunko Medical K.K.]. The activity of the test drug was first assayed by determining the primary aggregation inhibitory effect in terms of inhibition rate (%) in relation to the maximum light transmittance of control PRP which is altered by ADP.
(2) The platelet aggregation inhibitory activity of Compound (I) (oral administration)
In one hour after oral administration of the test drug to rats, a blood sample was taken from each of the tested rats and the inhibition rate was assayed in accordance with the procedure as mentioned above (1)-a).

[2] = test system: ADP-induced platelet aggregation; experiment: Inhibitory activity to the ADP-induced platelet aggregation measured by the platelet-counting-method, rat PRP; type: cell-based; settings: platelet counting (Coulter Counter)
Procedure: (b) Inhibitory activity to the ADP-induced platelet aggregation measured by the platelet-counting-method.
The test drug was dissolved in Na-isotonic 0.02 M Tris-HCl buffer (pH 7.4) containing 1% of dimethylformamide and to 1.5 ml of the test drug solution was added 0.5 ml of the rat-PRP. The mixture was incubated at 37° C. for one minute, followed by the addition of 1 ml of 5×10^-5 M-ADP-physiological saline, and further incubated for 45 seconds. To the solvent as mentioned above was added rat-PRP of the same volume as above. The mixture was incubated at 37° C. for one minute, which was used as the control preparation.
The rate of non-aggregation (inhibitory rate of aggregation) was assayed against the control by counting the number of the platelets in each sample as a single platelet by means of Coulter Counter and by determining the number of the platelets after the addition of ADP as non-aggregated platelets.

[3] = test system: primary aggregation of platelets by ADP; experiment: Inhibitory activity to the (primary) platelet aggregation induced by ADP, aggregation meter, rat PRP; type: cell-based; settings: average of 5 cases
Procedure: (a) Inhibitory activity to the platelet aggregation induced by ADP (adenosine diphosphate)
as §1
The inhibition rates shown are each an average of 5 cases.

[4] = test system: thrombocyte (platelet) aggregation; experiment: Inhibition activity of platelet aggregation in mammalian blood (general statement)
[5] = test system: mice; settings: mouse, in vivo
Excerpt: (3) The toxicity of compound (I)

CC(=O)Oc1ccccc1C(=O)O [Aspirin]
Rate of inhibition of the platelet aggregation by ADP ([1]; 50 mg/kg body weight): 0% | Rate of inhibition of the platelet aggregation by ADP ([1]; 100 mg/kg body weight): 4.3% | Rate of inhibition of the aggregation ([2]; 0.5 × 10^-4 mol. conc.): 6.51 ± 1.86% | Rate of inhibition of the aggregation ([2]; 1 × 10^-4 mol. conc.): -15.81 ± 5.65% | Rate of inhibition of the aggregation ([2]; 5 × 10^-4 mol. conc.): -7.11 ± 0.98% | Rate of inhibition of the primary aggregation of platelets by ADP ([3]; 1.0 × 10^-4 mol. conc.): 10.6% | Rate of inhibition of the primary aggregation of platelets by ADP ([3]; 2.5 × 10^-4 mol. conc.): 28.8% | Rate of inhibition of the primary aggregation of platelets by ADP ([3]; 5.0 × 10^-4 mol. conc.): 60.4%

CCOC(=O)COc1ccc2c(C)c(CCN(CC)CC)c(=O)oc2c1 [Carbochromen]
Rate of inhibition of the aggregation ([2]; 0.5 × 10^-4 mol. conc.): 5.12 ± 2.20% | Rate of inhibition of the aggregation ([2]; 1 × 10^-4 mol. conc.): 12.75 ± 2.26% | Rate of inhibition of the aggregation ([2]; 5 × 10^-4 mol. conc.): 15.95 ± 1.87%

O=C1c2ccccc2SC12CC2 [Compound (I), 3-oxo-2,3-dihydro[1]benzothiophene-2-spirocyclopropane]
inhibition activity of thrombocyte (platelet) aggregation [4]: strong inhibition activity | Rate of inhibition of the platelet aggregation by ADP ([1]; 5 mg/kg body weight): -3.6% | Rate of inhibition of the platelet aggregation by ADP ([1]; 10 mg/kg body weight): 12.7% | Rate of inhibition of the platelet aggregation by ADP ([1]; 25 mg/kg body weight): 20.0% | Rate of inhibition of the platelet aggregation by ADP ([1]; 50 mg/kg body weight): 21.9% | toxic reactions ([5]; ip, 100 mg/kg): nor was any toxic reaction noted | toxic reactions ([5]; po, 300 mg/kg): No toxic reactions were elicited | Rate of inhibition of the aggregation ([2]; 0.5 × 10^-4 mol. conc.): 13.02 ± 2.20% | Rate of inhibition of the aggregation ([2]; 1 × 10^-4 mol. conc.): 16.09 ± 3.14% | Rate of inhibition of the aggregation ([2]; 5 × 10^-4 mol. conc.): 80.98 ± 2.92% | Rate of inhibition of the primary aggregation of platelets by ADP ([3]; 0.5 × 10^-4 mol. conc.): 10.9% | Rate of inhibition of the primary aggregation of platelets by ADP ([3]; 0.75 × 10^-4 mol. conc.): 52.4% | Rate of inhibition of the primary aggregation of platelets by ADP ([3]; 1.0 × 10^-4 mol. conc.): 82.3% | Rate of inhibition of the primary aggregation of platelets by ADP ([3]; 2.5 × 10^-4 mol. conc.): 96.9% | Rate of inhibition of the primary aggregation of platelets by ADP ([3]; 5.0 × 10^-4 mol. conc.): 97.7%

COc1ccc2c(c1)c(CC(=O)O)c(C)n2C(=O)c1ccc(Cl)cc1 [Indomethacin]
Rate of inhibition of the platelet aggregation by ADP ([1]; 5 mg/kg body weight): 12.5% | Rate of inhibition of the platelet aggregation by ADP ([1]; 10 mg/kg body weight): 12.4% | Rate of inhibition of the platelet aggregation by ADP ([1]; 25 mg/kg body weight): 11.2% | Rate of inhibition of the aggregation ([2]; 0.5 × 10^-4 mol. conc.): 8.18 ± 2.21% | Rate of inhibition of the aggregation ([2]; 1 × 10^-4 mol. conc.): 0.85 ± 0.20% | Rate of inhibition of the aggregation ([2]; 5 × 10^-4 mol. conc.): 64.66 ± 1.76% | Rate of inhibition of the primary aggregation of platelets by ADP ([3]; 1.0 × 10^-4 mol. conc.): 8.0% | Rate of inhibition of the primary aggregation of platelets by ADP ([3]; 2.5 × 10^-4 mol. conc.): 31.5% | Rate of inhibition of the primary aggregation of platelets by ADP ([3]; 5.0 × 10^-4 mol. conc.): 71.4%

CC(C(=O)O)c1cccc(C(=O)c2ccccc2)c1 (centres unmarked) [Ketoprofen]
Rate of inhibition of the platelet aggregation by ADP ([1]; 10 mg/kg body weight): 7.2% | Rate of inhibition of the platelet aggregation by ADP ([1]; 25 mg/kg body weight): 13.5% | Rate of inhibition of the platelet aggregation by ADP ([1]; 50 mg/kg body weight): 18.6% | Rate of inhibition of the primary aggregation of platelets by ADP ([3]; 1.0 × 10^-4 mol. conc.): 19.6% | Rate of inhibition of the primary aggregation of platelets by ADP ([3]; 2.5 × 10^-4 mol. conc.): 36.0% | Rate of inhibition of the primary aggregation of platelets by ADP ([3]; 5.0 × 10^-4 mol. conc.): 71.5%
